The source made the active and inactive calls. How the calls were made is not given here. Bounds are passed on as bounds.

This is an account of results in PubChem BioAssay AID855 (Emory University Molecular Libraries Screening Center, 2007).

In the first assay the target is Eukaryotic translation initiation factor 4E (Mus musculus) + Eukaryotic translation initiation factor 4 gamma 1 (Homo sapiens) (UniProt P63073+Q04637). In words: blockers of eIF4G binding by eIF4E – biochemical, TR-FRET, dose response (AID 855). The following applies: TR-FRET 665/620 nm. (Time-resolved FRET reads energy transfer from a long-lived donor to a nearby acceptor.)
Chain of Eukaryotic translation initiation factor 4E (Mus musculus) + Eukaryotic translation initiation factor 4 gamma 1 (Homo sapiens) (P63073 whole entry, looked up): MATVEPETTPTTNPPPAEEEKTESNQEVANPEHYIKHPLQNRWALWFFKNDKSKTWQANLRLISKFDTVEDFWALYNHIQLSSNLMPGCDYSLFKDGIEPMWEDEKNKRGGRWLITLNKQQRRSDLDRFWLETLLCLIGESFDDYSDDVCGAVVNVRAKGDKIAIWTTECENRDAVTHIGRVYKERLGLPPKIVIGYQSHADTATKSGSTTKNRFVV
Chain of Eukaryotic translation initiation factor 4E (Mus musculus) + Eukaryotic translation initiation factor 4 gamma 1 (Homo sapiens) (Q04637 whole entry, looked up): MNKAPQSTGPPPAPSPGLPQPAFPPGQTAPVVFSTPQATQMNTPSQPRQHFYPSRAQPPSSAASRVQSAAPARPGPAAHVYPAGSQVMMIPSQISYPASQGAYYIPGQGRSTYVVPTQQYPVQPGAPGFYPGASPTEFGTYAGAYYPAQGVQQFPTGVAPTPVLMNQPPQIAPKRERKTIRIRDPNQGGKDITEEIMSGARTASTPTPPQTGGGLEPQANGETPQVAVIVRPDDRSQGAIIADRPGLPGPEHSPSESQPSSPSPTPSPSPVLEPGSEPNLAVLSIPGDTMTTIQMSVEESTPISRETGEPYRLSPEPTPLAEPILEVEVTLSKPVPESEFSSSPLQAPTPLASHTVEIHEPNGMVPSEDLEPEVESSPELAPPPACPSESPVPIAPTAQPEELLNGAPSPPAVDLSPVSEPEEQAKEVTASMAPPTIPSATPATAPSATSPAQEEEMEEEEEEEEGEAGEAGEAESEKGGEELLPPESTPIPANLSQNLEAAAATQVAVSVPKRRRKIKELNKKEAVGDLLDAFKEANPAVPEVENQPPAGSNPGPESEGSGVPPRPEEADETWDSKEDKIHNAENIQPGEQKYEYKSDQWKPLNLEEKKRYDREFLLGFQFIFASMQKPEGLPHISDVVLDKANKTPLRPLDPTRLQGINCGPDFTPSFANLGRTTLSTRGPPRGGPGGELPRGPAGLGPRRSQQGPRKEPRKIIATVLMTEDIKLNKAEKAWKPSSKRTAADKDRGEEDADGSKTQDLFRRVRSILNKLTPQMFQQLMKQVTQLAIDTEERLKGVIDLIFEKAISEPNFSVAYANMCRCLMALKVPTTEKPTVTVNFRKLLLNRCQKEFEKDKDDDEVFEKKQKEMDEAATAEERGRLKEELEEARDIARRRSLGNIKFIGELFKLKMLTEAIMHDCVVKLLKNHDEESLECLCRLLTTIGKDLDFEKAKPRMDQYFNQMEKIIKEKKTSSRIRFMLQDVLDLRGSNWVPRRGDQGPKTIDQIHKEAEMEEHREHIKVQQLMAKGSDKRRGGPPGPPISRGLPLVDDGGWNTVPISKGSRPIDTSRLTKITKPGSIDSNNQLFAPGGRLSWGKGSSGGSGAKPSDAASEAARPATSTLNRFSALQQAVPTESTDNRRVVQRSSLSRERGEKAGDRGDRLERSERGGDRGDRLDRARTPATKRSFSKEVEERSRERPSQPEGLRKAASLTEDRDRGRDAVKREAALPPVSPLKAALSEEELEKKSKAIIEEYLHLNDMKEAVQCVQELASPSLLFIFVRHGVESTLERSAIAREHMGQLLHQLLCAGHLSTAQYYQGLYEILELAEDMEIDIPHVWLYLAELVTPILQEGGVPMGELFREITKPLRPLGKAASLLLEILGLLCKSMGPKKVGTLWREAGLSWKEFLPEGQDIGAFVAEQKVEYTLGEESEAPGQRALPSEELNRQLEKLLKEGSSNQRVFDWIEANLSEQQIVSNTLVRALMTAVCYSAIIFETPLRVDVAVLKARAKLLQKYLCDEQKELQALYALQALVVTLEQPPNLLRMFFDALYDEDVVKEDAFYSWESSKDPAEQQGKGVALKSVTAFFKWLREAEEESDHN
For orientation: IC50 means the concentration at which inhibition is half-maximal. On to `O=C1CC(c2ccco2)CC(O)=C1C=Nc1cc(Cl)cc(Cl)c1` (stereo not given), for which the IC50 is > 64 µM (inactive).

Still in this assay, the particulars now being: TR-FRET 665/620 nm, at 64 µM (top of the series).
As to `Cc1cc(NC(=O)CSc2ccccc2)no1`, the “percent of control, lower = inhibition” value is “inactive”.

As to `Cc1[nH]n(-c2ccccc2)c(=S)c1C=Nc1cccc([N+](=O)[O-])c1`, the “percent of control, lower = inhibition” value is “inactive”.

With `O=C(CCn1[nH]c(=O)c2ccccc2c1=O)NCCO`, the “percent of control, lower = inhibition” value was “inactive”. The same measure, in the same setting: in the case of `COc1ccc(C(=O)Nc2ccc3oc(Cc4ccc(Cl)cc4)nc3c2)cc1OC` it was “inactive”. Still for that read-out and setting: to `CCN(CC)S(=O)(=O)c1ccc(Cl)c(C(=O)Oc2cccnc2)c1` belongs “inactive”. The same measure, in the same setting: in the case of `Cc1noc(C)c1CSc1nc2cc(S(=O)(=O)N3CCOCC3)ccc2o1` it was “inactive”. Take `Cc1nn(CCC#N)c2c1P(=S)(N1CCCC1)OC(c1ccc(F)cc1)=N2` (stereo not given): the “percent of control, lower = inhibition” value was “inactive”. On the same count and under the same terms, in the case of `N#C/C(=C\c1sc(N2CCOCC2)nc1-c1ccccc1)C(=O)Nc1cccc2ccccc12` it was “inactive”. In the case of `C=CCNC(=O)COc1cc(C)ccc1C`, the “percent of control, lower = inhibition” value is “inactive”. On the same count and under the same terms, in the case of `CC(=O)Nc1ccc(S(=O)(=O)NNC(=O)COc2cccc(C)c2)cc1` it was “inactive”; in that of `CCOc1ccc(-c2nc(=S)[nH][nH]2)cc1`, “inactive”. As for `CCOC(=O)c1ccccc1NC(=O)Cn1cnc2c(nnn2-c2ccc(C)cc2)c1=O`, the “percent of control, lower = inhibition” value was “inactive”. Still for that read-out and setting: in the case of `CCn1c(C2CC(=O)N(Cc3ccccc3)C2)nc2ccccc21` (stereo not given) it was “inactive”; in that of `COc1c(Cl)cc(-c2noc(C)c2C(=O)NC(C)C)cc1Cl`, “inactive”. For `CC(=O)Nc1ccnc(-c2cccnc2)n1`, the “percent of control, lower = inhibition” value was “inactive”. Same read-out and setting: in the case of `CN1CCCN(Cc2ccccc2C(F)(F)F)CC1` it was “inactive”; in that of `O=C(OCCN1C(=O)c2cccc3c(N4CCOCC4)ccc(c23)C1=O)c1cc(Cl)cc(Cl)c1`, “inactive”. Still for that read-out and setting: to `O=C(/N=C1\NC(=O)C(F)(C(F)(F)F)S1)NC1CCCCC1` (stereo not given) belongs “inactive”; to `CCn1c2ccccc2c2nc3cc(S(=O)(=O)N4CCOCC4)ccc3nc21`, “inactive”; to `CCOC(=O)C(C)n1ncn2cccc2c1=O` (stereo not given), “inactive”. The same measure, in the same setting: in the case of `O=C(NC1CCCC1)c1cnc2n(c1=O)CCS2` it was “inactive”; in that of `CCNC(=O)c1ccc(CSc2ccc(Cl)cc2)cc1`, “inactive”. For `O=C(CSCC(=O)Nc1ccc2ccccc2c1)NCc1ccccc1`, the “percent of control, lower = inhibition” value is “inactive”. On the same count and under the same terms, in the case of `CCN=C(N/N=C/c1ccc([N+](=O)[O-])cc1)SC` it was “inactive”. On the same count and under the same terms, in the case of `COc1cc(CC(=O)Nc2ccc3c(c2)CCC3)cc(OC)c1OC` it was “inactive”; in that of `CCC(C(=O)NC(C)CCc1ccco1)n1nc(C)n2c(cc3occc32)c1=O` (stereo not given), “inactive”. Same read-out and setting: to `CCOC(=O)c1c(NC(=O)c2cc(-c3ccc(O)cc3)on2)sc(C(C)=O)c1C` belongs “inactive”; to `O=C(N/N=C/c1ccccc1O)c1cc(=O)[nH]c2ccccc12`, “inactive”; to `O=C(Nc1nnc(C23CC4CC(CC(C4)C2)C3)s1)c1ccc(N2C(=O)CCC2=O)cc1`, “inactive”.
